One test concerns cells in tissue culture. The conditions noted are these: Purdie 1979; cited from earlier work.
In another test the test system is 23SK human skin cells. Nature of the test: Protection of human skin cells against phosphoramide mustard. Format: cell-based. Particulars: 4 mM preload 30 min, phosphoramide mustard 40 min. On the procedure:
An in vitro cell culture assay was developed to determine the ability of chemoprotective polyamines, chemoprotective amino thiols and other molecules to confer radioprotection or chemoprotection to human skin cells. Diploid, human foreskin fibroblasts (23SK cells) were maintained in DMEM supplemented with 20% fetal bovine serum and gentamycin. For toxicity experiments, cells were seeded at a density of 750 cells/100 μl of DMEM+20% FBS+gentamycin into each well of 96 well plates (Corning, Corning, N.Y.). The next day, solutions of protective drug molecules, typically at 4 mM concentration, were prepared in Dulbecco's phosphate-buffered saline (D-PBS); each stock was titrated back to pH 7.0-7.5, if necessary, using sterile HCl or NaOH. Media was aspirated from cell wells, wells were rinsed with D-PBS, and loading solutions were then added to wells. Cells were typically exposed to loading solutions for 30 min. Following this drug loading period, plates were either placed directly into a Shepherd Mark II Cs^137 irradiator for irradiation (38 min), or wells were aspirated and the solution immediately replaced with a solution of D-PBS containing 350 μM phosphoramide mustard (obtained from NCI Chemical Repository) for a 40 min incubation at room temperature. After either treatment, wells were aspirated, rinsed and then given 100 μl of DMEM+20% FBS+gentamycin. Plates were maintained in 5% CO2 within a humidified chamber within a humidified incubator for 4-5 days at 37° C. […] of MTT solution (Promega Corp., Madison, Wis.) was then added to each well, and color development occurred over the next 3 hr at 37° C. Absorbance at 490 nm was then determined using a plate reader, and cell growth in treated wells compared to cell growth in wells loaded with vehicle and not irradiated or exposed to phosphoramide mustard was plotted using GraphPad software.

The test system of the next test is cell cycle. The conditions noted are these: Jeitner and Renton 1996; Snyder and Grdina 2000; Kramer et al. 1997; cited from earlier work.
The subject of test [1] is primary, human skin fibroblasts. Nature of the test: Cell cycle block in human skin fibroblasts (flow cytometry). Format: cell-based. The conditions noted are these: for cell cycle block (phase): log-phase human fibroblast cultures; for reversibility of cell cycle block: upon washout or removal of the drug. On the procedure:
(§1) Methods (Cell cycle and p21 western): The cell culture experiments were done using primary, human skin fibroblasts, one strain of which (BJ cells) was obtained from ATCC (American Type Culture Collection). […] For flow cytometry and p21 experiments, cells were plated at 0.5×10^6 cells/150 mm plate, and 24 hr later, drug molecules (4100 μM PrC-210, 600 μM cysteamine, 205 μM cysteamine analog, 0.4 μg/ml colcemid) were added to medium. […] (Cancer Research. 61(21):7754-62, 2001). As per the cited reference, cells were fixed, treated with RNAse, and stained with propidium iodide for flow cytometry, or cells were extracted, proteins electrophoresed, and probed with anti-p21 antibody (#SXM-30) for western blot analysis.
In general terms: A flow cytometer gives signals particle by particle.

Test [2] deals with radiation-induced dermatitis on backs of rats. Nature of the test: Radiation-induced dermatitis in rat skin model. The conditions noted are these: for protective effect against radiation-induced dermatitis (FIG. 8D): topical in carrier vehicle before 5.5 min Cs137 irradiation. Format: in vivo. The procedure: To determine efficacy of chemoprotective polyamines in preventing radiation-induced dermatitis, adult rats were topically treated with the compounds before and after radiation treatment. Rats were exposed to medically relevant levels of radiation that could induce clinical radiation dermatitis. Sprague Dawley rats (Harlan Spraque Dawley) at 4-6 weeks-old were anesthetized with sodium pentobarbital at 40 mg/kg body weight (Sigma, St. Louis, Mo.) prior to radiation exposure. A defined area (1.5×2 cm) on the backs of rats was irradiated using a Mark I, Model 30, Cs 137 irradiator (J. L. Sheppard & Associates). Before topical drug treatment or irradiation, the backs of the rats were clipped using an Oster clipper at the closest setting. The rest of the body was protected from radiation exposure using a lead shield (2.5 cm thick). A dose response study was initially performed to reproduce relevant dermatitis that matched the Grade (I-IV) scale used to score the severity of radiation-induced dermatitis in humans. The severity of the dermatitis was scored 12-13 days post-irradiation at the peak of the dermal inflammation. […] Radiation dermatitis of Grade II-III was considered most clinically relevant, so a radiation dose of 8.7 Gy was typically used in the rats. The clipped back region on the rats was treated topically with aminothiol in delivery vehicle four times in the two hours immediately preceding irradiation (at −2 hr, −1 hr, −30 min, and −10 min; irradiation was at 0 min
The polyamines or amino thiols were prepared in a delivery vehicle, consisting of ethanol:propylene glycol:water, ranging from 0:95:5 to 50:30:20 depending upon the solubility characteristics of the topical molecule, and the degree of dermal penetration desired. A vehicle composed of an emulsion formed by sonication of ‘nonionic liposomes’ and isopropyl myristate was also used (Jayaraman, S. et al., J. Pharm. Sci. 85:1082-1084, 1996). In a commonly used protocol, 220 μl of topical drug/vehicle was applied to an area ˜2 cm×3 cm on the back in the 2 hr just prior to irradiation. Rats treated with only the delivery vehicle served as controls. Twelve to thirteen days post-radiation, the rats were evaluated for dermatitis within the irradiated area. In early studies, a modified scoring scale described by Masuda K. et al., Int. J. Radiation Oncol. Biol. Phys: 12, 1645 (1986) was used, and in later studies, including those described here, a simplified scoring system was used in which the percentage of the irradiated, rectangular field covered with scrab material was estimated between 0 and 100% to provide scores on a scale between 0 and 100.
This example relates to the use of a rat skin model to evaluate the efficacy of two amino thiol compounds in preventing radiation-induced dermatitis. To test whether topically-applied aminothiols could prevent the radiodermatitis caused by external beam radiotherapy, the rodent model described in Example 3 was slightly modified. Briefly, the radiodermatitis model involved: • i) shaving the backs of 6-7 week old rats or mice; • ii) applying four topical doses of aminothiol in a delivery vehicle composed of ethanol:propylene glycol (PG):water in the 2 hr prior to irradiation; • iii) irradiating a small, 3 cm^2 (1.5×2 cm) area on the animal's back (through a window in a lead plate) with 8.7 Gy of γ radiation from a Cs^137 source; and • iv) scoring the severity of the dermatitis 12-13 days later, at the peak of the inflammatory skin reaction. Radiodermatitis severity was scored by estimating the percentage of the irradiated field that was covered by scrab material.
Methods: Treatments were applied as described in Example 6.

For the next test, the system named is mouse skin. The conditions noted are these: cited from earlier work.
A further test deals with p21 in human fibroblasts. Nature of the test: p21 western blot in human skin fibroblasts. Format: cell-based. Particulars: IC70 concentration of PrC-210 (4100 μM); cysteamine 600 μM; 30 hour exposure. On the procedure:
as §1
For orientation: In western blotting, separated proteins are transferred to a membrane and probed.

Test [3] deals with radiation-induced alopecia in 11 day old rat pups. Particulars: vehicle 50:25:25. On the procedure:
In some cases, topical vasoconstrictors may be used to reduce the severity of cancer therapy side-effects. […] Because cysteamine might have been toxic if distributed systemically at high concentrations in animals, a vasoconstrictor, in this case epinephrine (epinephrine-HCl, Sigma Chemical, 20 mM in topical 0:95:5 vehicle; ethanol:PG:water) was topically co-applied with cysteamine in an effort to prevent any potential uptake of the small aminothiol by skin vasculature. […] These initial experiments were done using a rat model where whole-body radiation is used to induce alopecia. This protocol is a variation of the Cytoxan-induced alopecia protocol described in Example 2. Here, 11 day old rat pups receive four topical treatments to their backs in the two hour period (at −2 hr, −1 hr, −30 min, −10 min) just prior to receiving whole-body irradiation (3.65 min) in a Cs137 irradiator. […] The topical vehicle varies from 0:95:5 (ethanol:PG:water) to 50:30:20, depending upon the solubility and concentration of the particular aminothiol. […] Following irradiation, the animals are housed with lactating mothers for 9 days and protection from radiation-induced alopecia within the topically-treated area is scored on day 20 of life. Protection is scored as the percentage of coat density seen in unirradiated rats.
Here, epinephrine-HCl (FW:220) was dissolved in an ethanol:propylene glycol:water delivery vehicle and was applied four times in the two hours just prior to irradiating the 11 day old rat pups. The animals were then housed with lactating mothers until day 20 of life when the degree of protection conferred by the topical epinephrine was scored.

The test system of test [4] is Phase I/Phase II/Phase III drug metabolizing/exporting gene products in neonate rat skin. Nature of the test: Nucleic acid arrays of topically treated neonate rat skin. The conditions noted are these: topical treatment of neonate rat skin for 3-6 days. Format: in vivo. An excerpt:
Two examples of genes whose expression was induced following topical β-naphthaflavone treatment included, glutathione S-transferase (several separate isoforms that conjugate/detoxify drug electrophiles), and MRP (mdr-related protein, drug exporting membrane pump).

“Also recorded” adds a separate entry of the source. Like-named read-outs stand apart in the source and are kept apart here.

Here are results for five compounds from patent US7314959B2, “Amino thiol compounds and compositions for use in conjunction with cancer therapy” (Wisconsin Alumni Research Foundation, priority 2003, dated 2008).

For `NCCCNCCS` [WR-1065], the “radioprotector activity when added to cells in tissue culture” value with cells in tissue culture is on record as “active as a radioprotector”. For the same compound, the “protective effect on cell growth against phosphoramide mustard (FIG. 8B)” value (shortened to “protective effect on cell growth”) in the test on 23SK human skin cells was “not significantly different than that seen in the vehicle control”. Also, the “cell cycle arrest reported in literature” value in the test with cell cycle was “arresting cells in the G2 phase”. Further, in test [1], the “cell cycle block (phase)” value is on record as “cell cycle block in G2; also recorded: G2 cell cycle block that could not be reversed” and the “reversibility of cell cycle block” value was “not reversible”. Also, in test [2], the “protective effect against radiation-induced dermatitis (FIG. 8D)” value is on record as “lack of a protective effect”.

For `NCCCNCCSP(=O)(O)O` [amifostine], the “protective effect on cell growth” value in the test with 23SK human skin cells is listed as “not significantly different than that seen in the vehicle control”. In addition, in the test with mouse skin (systemic, mice, Lowy et al. 1972), the “effect of systemic drug on radiation-induced skin damage” value is listed as “effective in reducing radiation-induced skin damage”. Also, in the test with mouse skin (topical, Verhey et al. 1983), the “protective effect when applied topically to mouse skin” value is reported as “no protective effect”. For the same compound, the “effect of topical application on radiation-induced skin damage” value in the test with mouse skin (topical, mice, Lowy et al. 1972) is reported as “showed no protective effect”. In the test with cell cycle, the “cell cycle arrest reported in literature” value was “arresting cells in the G2 phase”. For the same compound, in test [1], the “cell cycle block (phase)” value is given as “G2 cell cycle block that could not be reversed”. In test [2], the “protective effect against radiation-induced dermatitis (FIG. 8D)” value is given as “lack of a protective effect”.

Consider `NCCS` [cysteamine], for which the “radioprotector activity when added to cells in tissue culture” value in the test with cells in tissue culture is listed as “active as a radioprotector”. In addition, in the test with p21 in human fibroblasts, the p21 expression result was “does not induce such expression”. Besides, the “protective effect on cell growth” value in the test on 23SK human skin cells is reported as “conferred a protective effect”. The “cell cycle arrest reported in literature” value in the test on cell cycle is on record as “arrest in G2/M”. In [1], the “cell cycle block (phase)” value is listed as “cell cycle block in G2; also recorded: G2 cell cycle block that could not be reversed” and the “reversibility of cell cycle block” value is “not reversible”. The “effect on radiation dermatitis” value in [2] (600-1200 mM applied to backs of rats two hours prior to radiation) is on record as “eliminate radiation dermatitis”.

As for `CNC[C@H](O)c1ccc(O)c(O)c1` [epinephrine], the “Dermatitis Score (% of irradiated field free of scab material)” value in test [2] (20 mM epinephrine, vehicle 0:95:5, cage 480, 8.7 Gy) is recorded as 20 ± 8%. In addition, the “Alopecia Score (% Normal Coat Density in Topical Treatment Area)” value was determined as 10% in test [3] (20 mM epinephrine, 3.65 min γ irradiation (Cs137), Experiment 647-650); 35 ± 19% in test [3] (100 mM epinephrine, 3.65 min γ irradiation); 43 ± 17% in [3] (500 mM epinephrine, 3.65 min γ irradiation); 94 ± 6% in test [3] (1000 mM epinephrine, 3.65 min γ irradiation).

As to `O=c1cc(-c2ccccc2)oc2ccc3ccccc3c12` [β-naphthaflavone], the “number of Phase I/Phase II/Phase III drug metabolizing/exporting gene products activated” value in [4] is listed as “at least 40”.
